A short description of this series: Dynamic vapor sorption (DVS) adsorption/desorption. The class given is physicochemical. The note with it: up to 95% RH; isothermal at 25° C.; water as solvent. As to the method: The Adsorption/Desorption determination was performed using a Q5000 V3.3 TGA-SA instrument. […] The ramp was isothermal at 25° C. Water was used as the solvent for all DVS analysis. The data was analyzed with the Universal Analysis 2000 software.

Molecules are shown by their SMILES.

Regarding `Fc1ccccc1Cc1nc(-c2nc(C(F)(F)F)n[nH]2)cn2ccnc12` [Form A, 8-(2-fluorobenzyl)-6-(3-(trifluoromethyl)-1H-1,2,4-triazol-5-yl)imidazo[1,2-a]pyrazine], the “moisture picked up (DVS)” value was “less than 0.4%”.

Source of the values: patent US12122782B2, “Crystalline forms of 8-(2-fluorobenzyl)-6-(3-(trifluoromethyl)-1H-1,2,4-triazol-5-yl)imidazo[1,2-a]pyrazine as sGC stimulators” (Tisento Therapeutics Inc., priority 2018, dated 2024).
